Laboratory results published in patent US7265220B2, “Amino acid derivatives, method for production thereof and pharmaceutical compositions comprising said derivative” (Les Laboratories Servier, priority 2002, dated 2007).
pIC50: −log10 of the molar value. Structures can show the parent of a compound that is named as a salt.

Tests used:
Format in all cases: biochemical
[1] = target: T1, purified human activated protein C (Homo sapiens, UniProt P04070); test: Inhibition of purified human activated protein C, chromogenic substrate S2366; settings: activated protein C 2 nM, inhibitor preincubated 20° C., 30 minutes, substrate pyroGlu-Pro-Arg-pNA 0.39 mM, read at 405 nm; read-out: IC50 with respect to activated protein C
T1 construct: purchased Diagnostica Stago
T1 sequence (P04070 212-461 limits assumed): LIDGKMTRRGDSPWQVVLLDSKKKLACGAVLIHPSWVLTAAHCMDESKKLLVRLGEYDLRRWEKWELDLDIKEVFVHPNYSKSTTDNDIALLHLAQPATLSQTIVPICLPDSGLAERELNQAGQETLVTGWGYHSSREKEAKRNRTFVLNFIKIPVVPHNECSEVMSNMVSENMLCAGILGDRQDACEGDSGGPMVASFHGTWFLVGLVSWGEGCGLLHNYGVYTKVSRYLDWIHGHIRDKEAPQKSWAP
T1 sequence (P04070 43-197 limits assumed): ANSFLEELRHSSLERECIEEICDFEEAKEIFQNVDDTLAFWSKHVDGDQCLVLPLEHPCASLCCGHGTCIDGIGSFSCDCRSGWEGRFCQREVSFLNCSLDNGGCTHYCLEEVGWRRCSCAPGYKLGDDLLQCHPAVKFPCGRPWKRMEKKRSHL
Procedure: (§1) The inhibitors, enzymes and substrates are diluted in the same buffer (0.01 mM phosphate buffer pH 7.4 containing 0.12M sodium chloride and 0.05% bovine serum albumin in the case of thrombin and 50 mM TRIS-HCl buffer pH 7.4 containing 0.12M sodium chloride, 3 mM calcium chloride and 0.05% bovine serum albumin in the case of activated protein C and plasmin) and then dispensed in a volume of 50 μl onto a polystyrene microplate.

purified human plasmin = target: T2, purified human plasmin (Homo sapiens, UniProt P00747); test: Inhibition of purified human plasmin, chromogenic substrate S2403 (selectivity); settings: plasmin 2 nM, substrate <Glu-Phe-Lys-pNA 0.37 mM, read at 405 nm; read-out: IC50 with respect to plasmin
T2 construct: purified human plasmin (2 nM, Stago); purchased Stago
T2 sequence (P00747 581-810 limits assumed): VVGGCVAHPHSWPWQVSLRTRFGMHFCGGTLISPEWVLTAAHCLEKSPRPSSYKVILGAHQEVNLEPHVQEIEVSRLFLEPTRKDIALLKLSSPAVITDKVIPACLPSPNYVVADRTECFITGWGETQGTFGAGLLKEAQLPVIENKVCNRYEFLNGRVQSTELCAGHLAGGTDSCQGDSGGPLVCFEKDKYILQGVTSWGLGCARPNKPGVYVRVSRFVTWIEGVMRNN
T2 sequence (P00747 97-580 limits assumed): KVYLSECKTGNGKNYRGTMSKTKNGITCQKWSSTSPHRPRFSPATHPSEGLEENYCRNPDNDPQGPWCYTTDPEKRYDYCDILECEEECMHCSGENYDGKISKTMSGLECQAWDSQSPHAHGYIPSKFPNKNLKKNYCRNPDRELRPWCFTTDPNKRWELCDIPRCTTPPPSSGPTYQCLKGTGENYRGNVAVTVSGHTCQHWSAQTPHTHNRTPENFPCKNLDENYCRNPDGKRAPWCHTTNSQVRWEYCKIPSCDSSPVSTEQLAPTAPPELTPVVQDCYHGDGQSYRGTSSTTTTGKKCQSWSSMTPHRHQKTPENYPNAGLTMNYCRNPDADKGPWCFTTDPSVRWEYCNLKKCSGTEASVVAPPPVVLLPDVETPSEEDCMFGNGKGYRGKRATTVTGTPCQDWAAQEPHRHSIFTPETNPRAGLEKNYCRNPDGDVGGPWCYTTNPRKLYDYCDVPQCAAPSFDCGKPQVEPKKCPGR
Procedure: In order to assess in vitro the inhibitory activity of products of the invention on purified human activated protein C (Diagnostica Stago), the chromogenic substrate pyroGlu-Pro-Arg-pNA (0.39 mM, S2366, Chromogenix) was added to a given amount of activated protein C (2 nM) previously incubated with or without the inhibitor under test (20° C., 30 minutes).
In order to assess in vitro the selectivity with respect to thrombin and plasmin, the same protocol was applied to purified human thrombin (0.7 nM, Sigma) and to purified human plasmin (2 nM, Stago), using as substrates purified human fibrinogen (6 μM, Enzyme Research Laboratories) and the paracitroanilide peptide <Glu-Phe-Lys-pNA (0.37 mM, S2403, Chromogenix), respectively.
The inhibitors, enzymes and substrates are diluted in the same buffer ([…] phosphate buffer pH 7.4 containing 0.12M sodium chloride and 0.05% bovine serum albumin in the case of thrombin and 50 mM TRIS-HCl buffer pH 7.4 containing 0.12M sodium chloride, 3 mM calcium chloride and 0.05% bovine serum albumin in the case of activated protein C and plasmin) and then dispensed in a volume of 50 μl onto a polystyrene microplate.
The paranitroanilide liberated or the fibrin formed by the action of the serine protease is measured spectrophotometrically at 405 nm after reacting for from 10 to 30 minutes at 20° C.

purified human thrombin = purified human thrombin (Homo sapiens, UniProt P00734); test: Inhibition of purified human thrombin, fibrinogen substrate (selectivity); settings: thrombin 0.7 nM, substrate human fibrinogen 6 μM, fibrin formed read at 405 nm; read-out: IC50 with respect to thrombin
Procedure: as §1

With `N=C(N)c1ccc(CNC(=O)C2(NC(=O)[C@H](NCC(=O)O)C3CCCCC3)Cc3ccccc3C2)cc1` [Example 1, {[(1R)-2-({2-[({4-Amidinobenzyl}-amino)-carbonyl]-indan-2-yl}-amino)-1-cyclohexyl-2-oxoethyl]-amino}acetic acid hydrochloride] as the molecule, how does the pIC50 [1] read?
Its pIC50 is 6.09.

What about the pIC50 (purified human plasmin) of the same molecule?
Its pIC50 is 5.96.

And the pIC50 (purified human thrombin)?
The pIC50 was < 4.48.
